SMILES strings stand for the structures.

For the data set, the system named is murine leukemia P388. In words: Antitumor effect to murine leukemia P388 (survival of implanted mice, oral dosing). Type of data set: in vivo. The following applies: for Survival Rate (T/C x 100): orally once daily for 5 consecutive days, female CDF1-SLC mice, P 388 cells implanted subcutaneously. On the procedure:
Antitumor effect to murine leukemia P388. • Test compounds: 5-FU and compound No.1 (1-(4,4-dimethyl-6-oxo-l-cyclohexenyl)methylcarbamoyl-5-fluorouracil) • Method : 1 x 10^6 leukemia P 388 cells per mouse were implanted subcutaneously to female mice (CDFl-SLC strain, 18-21 g of weight). The control and test group consisted of 3 and 1 mice respectively. The compound No.l and 5-FU were dissolved in 100% dimethylsulfoxide respectively to be adjusted to various concentrations. The solution was administered orally to each mouse once daily for 5 consecutive days, starting 24 hours after the implantation.
Average period in days of survival in the group receiving the compound of this invention (T) and average period in days of survival in the control group (C) were determined to calculate survival rates (T/C x 100%).

For the molecule `O=c1[nH]cc(F)c(=O)[nH]1` [5-FU, 5-Fluorouracil], the “Survival Rate (T/C x 100)” value by setting is: (Dose 2.7 mg/kg/inj) 101%; (Dose 5.3 mg/kg/inj) 103%; (Dose 10.5 mg/kg/inj) 103%; (Dose 21 mg/kg/inj) 115%; (Dose 42 mg/kg/inj) 64.7%; (Dose 84 mg/kg/inj) 52.5%.

In the case of `CC1(C)CC=C(CNC(=O)n2cc(F)c(=O)[nH]c2=O)C(=O)C1` [Compound No.1, 1-(4,4-dimethyl-6-oxo-l-cyclohexenyl)methylcarbamoyl-5-fluorouracil], the “Survival Rate (T/C x 100)” value is 115% (Dose 25 mg/kg/inj); 129% (Dose 50 mg/kg/inj); 151% (Dose 100 mg/kg/inj); 122% (Dose 200 mg/kg/inj); 71.9% (Dose 400 mg/kg/inj). The “toxicity compared with 5-FU” value (conclusion from the dose range in the P388 mouse model, oral) is “less toxic than 5-FU”.

The values above are taken from patent EP0193944A1, “Derivatives of 5-fluorouracil” (Nippon Kayaku Kabushiki Kaisha, priority 1985, dated 1986).
